Legend:
purified αllbβ3 receptor = purified αllbβ3 receptor (Homo sapiens, UniProt P05106+P08514); assay: similar competitive binding assay with 125I-echistatin on αllbβ3 receptor, used for the specificity index; conditions: specificity index IC50 αllbβ3/ IC50 αvβ3; for Specificity αIIβ3 / αvβ3: Table 14
Method: To measure the relative affinity of the test compounds for αvβ3 receptors versus affinity for αllbβ3 receptors, similar competitive assays were carried out using purified αllbβ3 receptor and ^125I-echistatin (iodinated using the lactoperoxidase method). The specificity index, which is a measure of the relative binding affinity for αvβ3, versus αllbβ3, may be determined by dividing the IC50 value for αllbβ3 by the IC50 value for αvβ3.

[1] = biological target: T1, αvβ3 receptor (purified from human placenta) (Homo sapiens, UniProt P05106+P06756); assay: competition radioligand binding assay, 125I-echistatin to αvβ3 receptor; conditions: αvβ3, inhibition of specific 125I-echistatin binding
T1 construct: αvβ3 receptor (purified from human placenta); from tissue; host or cells: human placenta
Method: The following assay procedure, which is a competition radioligand binding assay, was carried out to determine the activity of the foregoing compounds as αvβ3 antagonists. The competitive assay procedure described in Kumar, et. al., "Biochemical Characterization Of The Binding Of Echistatin To Integrin αvβ3 Receptor", Journal Of Pharmacology And Experimental Therapeutics, Vol. 283, No. 2, pp. 843-853 (1997) was employed. Thus, binding of ^125I-echistatin (radiolabeled by the chloramine-T method to a specific activity of 2000 Ci/mmol (Amersham, Chicago, Il.)) to αvβ3 receptor (purified from human placenta), both prepared as described in Kumar, et al., was competed by the compounds prepared in the foregoing examples. Purified αvβ3 receptor was coated onto Microlite-2 plates at a concentration of 50 ng/well. ^125I-echistatin was added to the wells to a final concentration of 0.05 nM in binding buffer (50 µl/well) in the presence of the competing test compound. The competing test compounds were employed at serially diluted concentrations ranging from 1 pM to 100 nM. After a 3 hour incubation at room temperature, the wells were washed, and radioactivity, reflecting binding by ^125 I-echistatin to αvβ3 receptors, was determined with Top Count (Packard). Each data point is an average of values from triplicate wells.
Specific binding of ^125I-echistatin was calculated as the difference between the amount of ^125I-echistatin bound in the absence (total binding) and the amount of ^125I-echistatin bound in the presence of a 200-fold molar excess of unlabeled echistatin (nonspecific binding). The efficacy of the test compounds for inhibiting specific binding of ^125I-echistatin to αvβ3 receptors was determined by plotting a graph of specific binding (y-axis) as a function of test compound concentration (x-axis). The concentration of test compound required to inhibit 50% of the specific binding (IC50) was determined from the plot. The IC50 may be directly converted mathematically to Ki, which is a measure of the receptor binding affinity of the compounds under the defined assay conditions.

In the case of CCOC(=O)CCNC(=O)N(Cc1ccc(C(=O)NC[C@H](NC(=O)OCc2ccccc2)C(=O)O)cc1)Cc1nc2ccccc2[nH]1 [Example 5-54], the “SPECIFICITY αIIbβ3 / αvβ3” value (purified αllbβ3 receptor; Table 10) is reported as 413 and the IC50 ([1]; Table 10) is reported as 2 nM.

With CC(=O)N(Cc1ccc(C(=O)NC[C@H](NC(=O)OCc2ccccc2)C(=O)O)cc1)C(C)c1nc2ccccc2[nH]1 (some centres unmarked) [Example 5-76] the “SPECIFICITY αIIbβ3 / αvβ3” value (purified αllbβ3 receptor; Table 15) was 6.7 and the IC50 ([1]; Table 15) was 50 nM.

For CCCCOC(=O)N[C@@H](CNC(=O)c1ccc(CN(Cc2nc3ccccc3[nH]2)C(=O)Nc2ccc(F)cc2)cc1)C(=O)O [Example 5-88], the “Specificity αllbβ3 / αvβ3” value (purified αllbβ3 receptor; Table 16) was 1657 and the IC50 ([1]; Table 16) was 2 nM.

For COCC(=O)N(Cc1ccc(C(=O)NC[C@H](NS(=O)(=O)c2ccccc2)C(=O)O)cc1)Cc1nc2ccccc2[nH]1 [Example 5-80], the “Specificity αllbβ3 / αvβ3” value (purified αllbβ3 receptor; Table 16) was 11 and the IC50 ([1]; Table 16) was 4.4 nM.

In the case of CCCCOC(=O)N[C@@H](CNC(=O)c1ccc(CN(Cc2nc3ccccc3[nH]2)C(=O)NC(C)(C)C)cc1)C(=O)O [Example 5-85], the “Specificity αllbβ3 / αvβ3” value (purified αllbβ3 receptor; Table 16) is reported as 1223 and the IC50 ([1]; Table 16) is reported as 1.8 nM.

With O=C(O)CNC(=O)N(Cc1ccc(C(=O)NC[C@H](NC(=O)OCc2ccccc2)C(=O)O)cc1)Cc1nc2ccccc2[nH]1 [Example 5-96, N^3-[4-[(Benzimidazol-2-yl)methyl] [[(carboxymethyl)amino]carbonyl]aminomethylbenzoyl]-N^2-Cbz-L-2,3-diaminopropionic acid] the “Specificity αllbβ3 / αvβ3” value (purified αllbβ3 receptor; Table 16) was 528 and the IC50 ([1]; Table 16) was 3.4 nM.

With CC(C)C(=O)N(Cc1ccc(C(=O)NC[C@H](NC(=O)OCc2ccccc2)C(=O)O)cc1)Cc1nc2ccccc2[nH]1 [Example 5-13] the “SPECIFICITY αIIbβ3 / αvβ3” value (purified αllbβ3 receptor; Table 10) was 38 and the IC50 ([1]; Table 10) was 3.1 nM.

CC(c1nc2ccccc2[nH]1)N(Cc1ccc(C(=O)NC[C@H](NC(=O)OCc2ccccc2)C(=O)O)cc1)C(=O)CCc1ccccc1 (some centres unmarked) [Example 5-78] was tested, and the “SPECIFICITY αIIbβ3 / αvβ3” value (purified αllbβ3 receptor; Table 15) was 33.9 and the IC50 ([1]; Table 15) was 21 nM.

In the case of CC(=O)N(CCc1nc2ccccc2[nH]1)Cc1ccc(C(=O)NCC(NC(=O)OCc2ccccc2)C(=O)O)cc1 (centres unmarked) [Example 5-71], the “Specificity αIIβ3 / αvβ3” value (purified αllbβ3 receptor) is reported as 0.3 and the IC50 ([1]; Table 14) is reported as 266 nM.

For CC(C)(C)OC(=O)N[C@@H](CNC(=O)c1ccc(CN(Cc2nc3ccccc3[nH]2)C(=O)CCC2CCCC2)cc1)C(=O)O [Example 5-64], the “Specificity αllbβ3 / αvβ3” value (purified αllbβ3 receptor; Table 12) was 499 and the IC50 ([1]; Table 12) was 16 nM.

For O=C(NC(CNC(=O)c1ccc(CN(CCc2nc3ccccc3[nH]2)C(=O)CCc2ccccc2)cc1)C(=O)O)OCc1ccccc1 (centres unmarked) [Example 5-73], the “Specificity αIIβ3 / αvβ3” value (purified αllbβ3 receptor) was 0.7 and the IC50 ([1]; Table 14) was 170 nM.

With COCC(=O)N(CCc1nc2ccccc2[nH]1)Cc1ccc(C(=O)NCC(NC(=O)OCc2ccccc2)C(=O)O)cc1 (centres unmarked) [Example 5-72] the “Specificity αIIβ3 / αvβ3” value (purified αllbβ3 receptor) was 0.5 and the IC50 ([1]; Table 14) was 559 nM.

With CCOC(=O)[C@H](CCSC)NC(=O)N(Cc1ccc(C(=O)NC[C@H](NC(=O)OCc2ccccc2)C(=O)O)cc1)Cc1nc2ccccc2[nH]1 [Example 5-48] the “SPECIFICITY αIIbβ3 / αvβ3” value (purified αllbβ3 receptor; Table 10) was 2028 and the IC50 ([1]; Table 10) was 1 nM.

CC(C)NC(=O)N(Cc1ccc(C(=O)NC[C@H](NC(=O)OCc2ccccc2)C(=O)O)cc1)Cc1nc2ccccc2n1C [Example 5-93] was tested, and the “Specificity αllbβ3 / αvβ3” value (purified αllbβ3 receptor; Table 16) was 124 and the IC50 ([1]; Table 16) was 6.7 nM.

CC(C)(C)OC(=O)N[C@@H](CNC(=O)c1ccc(CNCc2nc3ccccc3[nH]2)cc1)C(=O)O [Example 5-60] was tested, and the “Specificity αllbβ3 / αvβ3” value (purified αllbβ3 receptor; Table 12) was 90 and the IC50 ([1]; Table 12) was 25 nM.

With COCCC(=O)N(Cc1ccc(C(=O)NC[C@H](NC(=O)OCc2ccccc2)C(=O)O)cc1)Cc1nc2ccccc2[nH]1 [Example 5-25] the “SPECIFICITY αIIbβ3 / αvβ3” value (purified αllbβ3 receptor; Table 10) was 52 and the IC50 ([1]; Table 10) was 4.5 nM.

For COCC(=O)N(Cc1ccc(C(=O)NC[C@H](NC(=O)OC(C)(C)C)C(=O)O)cc1)Cc1nc2ccccc2[nH]1 [Example 5-62], the “Specificity αllbβ3 / αvβ3” value (purified αllbβ3 receptor; Table 12) was 419 and the IC50 ([1]; Table 12) was 30 nM.

In the case of O=C(N[C@@H](CNC(=O)c1ccc(CN(Cc2nc3ccccc3[nH]2)C(=O)NCc2ccccc2)cc1)C(=O)O)OCc1ccccc1 [Example 5-29], the “SPECIFICITY αIIbβ3 / αvβ3” value (purified αllbβ3 receptor; Table 10) is reported as 144 and the IC50 ([1]; Table 10) is reported as 4.3 nM.

With Cn1c(CN(Cc2ccc(C(=O)NC[C@H](NC(=O)OCc3ccccc3)C(=O)O)cc2)C(=O)NC2CCCCC2)nc2ccccc21 [Example 5-92] the “Specificity αllbβ3 / αvβ3” value (purified αllbβ3 receptor; Table 16) was 174 and the IC50 ([1]; Table 16) was 7.6 nM.

O=C(N[C@@H](CNC(=O)c1ccc(CN(Cc2nc3ccccc3[nH]2)C(=O)NC23CC4CC(CC(C4)C2)C3)cc1)C(=O)O)OCc1ccccc1 [Example 5-40] was tested, and the “SPECIFICITY αIIbβ3 / αvβ3” value (purified αllbβ3 receptor; Table 10) was 288 and the IC50 ([1]; Table 10) was 5.7 nM.

CCCCOC(=O)N[C@@H](CNC(=O)c1ccc(CN(Cc2nc3ccccc3[nH]2)C(=O)N[C@@H](CCSC)C(=O)OCC)cc1)C(=O)O [Example 5-87] was tested, and the “Specificity αllbβ3 / αvβ3” value (purified αllbβ3 receptor; Table 16) was 1569 and the IC50 ([1]; Table 16) was 2 nM.

With O=C(N[C@@H](CNC(=O)c1ccc(CN(Cc2nc3ccccc3[nH]2)C(=O)CCc2ccccc2)cc1)C(=O)O)OCc1ccccc1 [Example 5-16] the “SPECIFICITY αIIbβ3 / αvβ3” value (purified αllbβ3 receptor; Table 10) was 899 and the IC50 ([1]; Table 10) was 4.4 nM.

With CC(NCc1ccc(C(=O)NC[C@H](NC(=O)OCc2ccccc2)C(=O)O)cc1)c1nc2ccccc2[nH]1 (some centres unmarked) [Example 5-75] the “SPECIFICITY αIIbβ3 / αvβ3” value (purified αllbβ3 receptor; Table 15) was 10.2 and the IC50 ([1]; Table 15) was 306 nM.

CCOC(=O)CNC(=O)N(Cc1ccc(C(=O)NC[C@H](NC(=O)OCc2ccccc2)C(=O)O)cc1)Cc1nc2ccccc2[nH]1 [Example 5-45, N^3-[4-[(benzimidazol-2-yl)methyl][[(ethoxycarbonylmethyl)amino]-carbonyl]aminomethylbenzoyl]-N^2-Cbz-1-2,3-diaminopropionic acid] was tested, and the “SPECIFICITY αIIbβ3 / αvβ3” value (purified αllbβ3 receptor; Table 10) was 1333 and the IC50 ([1]; Table 10) was 2.2 nM.

CC(=O)OC(C(=O)N(Cc1ccc(C(=O)NC[C@H](NC(=O)OCc2ccccc2)C(=O)O)cc1)Cc1nc2ccccc2[nH]1)c1ccccc1 (some centres unmarked) [Example 5-18] was tested, and the “SPECIFICITY αIIbβ3 / αvβ3” value (purified αllbβ3 receptor; Table 10) was 82 and the IC50 ([1]; Table 10) was 4.4 nM.

In the case of COCCNC(=S)N(Cc1ccc(C(=O)NC[C@H](NC(=O)OCc2ccccc2)C(=O)O)cc1)Cc1nc2ccccc2[nH]1 [Example 5-56], the “SPECIFICITY αIIbβ3 / αvβ3” value (purified αllbβ3 receptor; Table 10) is reported as 514 and the IC50 ([1]; Table 10) is reported as 1.6 nM.

With O=C(O)CC(NC(=O)c1ccc(CNCc2nc3ccccc3[nH]2)cc1)c1ccccc1 (centres unmarked) [Example 5-65] the “Specificity α11bβ3 / αvβ3” value (purified αllbβ3 receptor; Table 13) was 0.4 and the IC50 ([1]; Table 13) was 9230 nM.

For CC(NC(=O)N(Cc1ccc(C(=O)NC[C@H](NC(=O)OCc2ccccc2)C(=O)O)cc1)Cc1nc2ccccc2[nH]1)c1cccc2ccccc12 (some centres unmarked) [Example 5-36], the “SPECIFICITY αIIbβ3 / αvβ3” value (purified αllbβ3 receptor; Table 10) was 129 and the IC50 ([1]; Table 10) was 11.7 nM.

O=C(N[C@H](CNC(=O)c1ccc(CN(Cc2nc3ccccc3[nH]2)C(=O)CCc2ccccc2)cc1)C(=O)O)OCc1ccccc1 [Example 5-59] was tested, and the “Specificity αllbβ3 / αvβ3” value (purified αllbβ3 receptor; Table 11) was 65 and the IC50 ([1]; Table 11) was 129 nM.

With CCCCOC(=O)N[C@@H](CNC(=O)c1ccc(CN(Cc2nc3ccccc3[nH]2)C(=O)N[C@H](C(=O)OCC)C(C)C)cc1)C(=O)O [Example 5-90] the “Specificity αllbβ3 / αvβ3” value (purified αllbβ3 receptor; Table 16) was 1697 and the IC50 ([1]; Table 16) was 2.6 nM.

In the case of O=C(NC(CNC(=O)c1ccc(CNCCc2nc3ccccc3[nH]2)cc1)C(=O)O)OCc1ccccc1 (centres unmarked) [Example 5-70], the “Specificity αIIβ3 / αvβ3” value (purified αllbβ3 receptor) is reported as 0.2 and the IC50 ([1]; Table 14) is reported as 413 nM.

For CC(C)(C)OC(=O)N[C@@H](CNC(=O)c1ccc(CN(Cc2nc3ccccc3[nH]2)C(=O)CCc2ccccc2)cc1)C(=O)O [Example 5-63], the “Specificity αllbβ3 / αvβ3” value (purified αllbβ3 receptor; Table 12) was 293 and the IC50 ([1]; Table 12) was 20 nM.

For CC(c1nc2ccccc2[nH]1)N(Cc1ccc(C(=O)NC[C@H](NC(=O)OCc2ccccc2)C(=O)O)cc1)C(=O)CCC1CCCC1 (some centres unmarked) [Example 5-79], the “SPECIFICITY αIIbβ3 / αvβ3” value (purified αllbβ3 receptor; Table 15) was 19.0 and the IC50 ([1]; Table 15) was 33 nM.

CCOC(=O)N(Cc1ccc(C(=O)NC[C@H](NC(=O)OCc2ccccc2)C(=O)O)cc1)Cc1nc2ccccc2[nH]1 [Example 5-20] was tested, and the “SPECIFICITY αIIbβ3 / αvβ3” value (purified αllbβ3 receptor; Table 10) was 15 and the IC50 ([1]; Table 10) was 7.2 nM.

Source: patent EP1135374B9, “BENZIMIDAZOLE COMPOUNDS THAT ARE VITRONECTIN RECEPTOR ANTAGONISTS” (SCHERING CORPORATION, priority 1998, dated 2000)
